Holding throughout (assay type): binding
In test [1] the target is T1, BTK wildtype protein (Homo sapiens (Human), UniProt Q06187). Kind of test: Kinact/KI determination for BTK protein inhibitors (Kobs). On the procedure: Test compounds were prepared as 10 mM stock solutions in DMSO (Fisher cat #BP231-100). Human recombinant BTK wildtype protein 393-659 or BTK C481S protein 393-659 was produced in house or purchased from Saromics Biostructures AB (Lund, Sweden). BTK protein was diluted to 1 μM in buffer (20 mM Hepes, pH 7.5, 150 mM NaCl, 1 mM MgCl2, 1 mM DTT). For testing BTK modification, compounds were diluted to 50× final test concentration in DMSO in 96-well storage plates. 1 μL of the diluted 50× compounds were added to appropriate wells in the PCR plate (Fisher cat #AB-0800). Increasing concentrations of compounds were added to separate wells, resulting in final assay compound concentrations of 3 μM, 10 μM, 30 μM and 100 μM. 49 μL of the stock protein solution was added to each well of the 96-well PCR plate. Reactions were mixed carefully. The plate was sealed well with aluminum plate seal and stored in a drawer at room temperature. After different incubation times, the reactions were quenched by adding 5 μL of 2% formic acid (Fisher cat #A117-50) in MilliQ H2O to each well followed by mixing with a pipette. The plate was then resealed with aluminum seal and stored until mass spectrometry analysis.
The extent of covalent modification of BTK proteins was determined by liquid chromatography electrospray mass spectrometry analysis of the intact proteins using a Thermo Q-Exactive Plus mass spectrometer. 20 μL of sample was injected onto a bioZen 3.6 μm Intact C4 column (Phenomenex cat #00B-4767-AN) placed in a column oven set to 40° C. and separated using a LC gradient from 20% to 60% solvent B. Solvent A was 0.1% formic acid and solvent B was 0.1% formic acid in acetonitrile. HESI source settings were set to 40, 5 and 1 for the sheath, auxiliary and sweep gas flow, respectively. The spray voltage was 4 kV, and the capillary temperature was 320° C. S-lens RF level was 50 and auxiliary gas heater temperature was set to 200° C. The mass spectrometry was acquired using a scan range from 650 to 1750 m/z using positive polarity at a mass resolution of 70,000, AGC target of 1e6 ions and maximum injection time of 250 ms. The recorded protein mass spectrum was deconvoluted from the raw data file using Protein Deconvolution v4.0 (Thermo). The protein mass, adduct masses and their corresponding peak intensities were exported to Excel (Microsoft). The peak intensities for the unmodified and modified protein were used to calculate the percent covalent modification of the BTK protein based on the following equation: % BTK protein modification=((BTK−compound)/(BTK)+(BTK−Compound))*100.
The Kinact/KI is a rate constant describing the efficiency of covalent bond formation resulting from the potency (KI) of the first reversible binding event and the maximum potential rate (Kinact) of inactivation. The percent […] protein modification was plotted as a function of time using Prism version 9.4.1 (GraphPad), and the observed rate of modification (Kobs), a first-order rate constant with units of inverse time, was estimated using nonlinear regression at each compound concentration. […] If Kobs is increasing with compound concentration, KI is higher than 3 μM. Kinact/KI can be estimated by plotting Kobs values against each compound concentration used in separate reactions. The Kobs values are fitted to determine Kinact and KI using the following equation, Kobs=(Kinact×[compound conc])/(KI+[compound conc]).
Target sequence in this assay (Q06187 393-659): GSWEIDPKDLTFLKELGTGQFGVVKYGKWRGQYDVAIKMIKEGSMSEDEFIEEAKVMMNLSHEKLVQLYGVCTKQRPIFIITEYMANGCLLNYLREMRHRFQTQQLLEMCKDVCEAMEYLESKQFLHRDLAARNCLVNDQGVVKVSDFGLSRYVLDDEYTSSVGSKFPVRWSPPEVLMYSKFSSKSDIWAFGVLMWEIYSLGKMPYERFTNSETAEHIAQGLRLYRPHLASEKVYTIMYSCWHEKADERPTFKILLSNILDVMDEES

Test [2] concerns the target T1, BTK wildtype protein. Nature of the test: BTK wildtype HTRF displacement assay. Conditions: 1-hour incubation; read-out: BTK (wt) IC50. A digest of the protocol: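 Full-length N-terminal GST-tagged BTK incubated 1 h at room temperature with compound (6 doses, four-fold dilutions from 5 μM top) plus kinase tracer 239 and anti-GST-Tb antibody. Tracer displacement read as TR-FRET 665/620 ratio, background-subtracted using no-protein control. IC50 from four-parameter fit constrained 0–100% inhibition.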
(Time-resolved FRET reads energy transfer from a long-lived donor to a nearby acceptor.)
Target sequence in this assay (Q06187 2-659): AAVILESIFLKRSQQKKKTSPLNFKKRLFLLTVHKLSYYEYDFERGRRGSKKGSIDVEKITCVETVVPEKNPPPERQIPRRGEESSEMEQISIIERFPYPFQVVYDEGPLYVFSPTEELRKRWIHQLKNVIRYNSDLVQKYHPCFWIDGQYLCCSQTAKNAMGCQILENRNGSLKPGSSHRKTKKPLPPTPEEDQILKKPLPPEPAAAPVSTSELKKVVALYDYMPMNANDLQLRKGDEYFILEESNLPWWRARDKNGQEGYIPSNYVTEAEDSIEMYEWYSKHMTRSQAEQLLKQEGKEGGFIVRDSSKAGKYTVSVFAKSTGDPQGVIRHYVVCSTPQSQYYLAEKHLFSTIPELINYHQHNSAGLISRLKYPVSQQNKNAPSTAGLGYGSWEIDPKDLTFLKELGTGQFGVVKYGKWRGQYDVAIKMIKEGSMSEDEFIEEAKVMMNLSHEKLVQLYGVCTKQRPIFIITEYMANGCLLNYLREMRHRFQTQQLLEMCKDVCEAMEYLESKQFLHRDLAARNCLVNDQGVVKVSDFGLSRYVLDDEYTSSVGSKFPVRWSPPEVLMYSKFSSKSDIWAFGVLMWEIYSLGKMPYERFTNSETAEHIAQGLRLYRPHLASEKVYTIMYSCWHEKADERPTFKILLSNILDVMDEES

Test [3] deals with BTK C481S protein (Homo sapiens (Human), UniProt Q06187, C481S). Nature of the test: BTK C481S HTRF displacement assay. The note with it: 1-hour incubation. In short, it runs like this: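 N-terminal GST-tagged BTK C481S (2-659) incubated 1 hour at room temperature with compound (6 doses, four-fold from 5 μM), 50 nM kinase tracer 239 and anti-GST-Tb antibody. TR-FRET 665/620 ratio, background-subtracted; IC50 from constrained four-parameter fit. KI=IC50/(1+[Tracer]/Kd), tracer Kd 54 nM.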

This note sets out measurements from patent US20240294531A1, “COVALENT HETEROCYCLES AND USES THEREOF” (Kumquat Biosciences Inc., priority 2022, published 2024).

What is called IC50 is the concentration that inhibits the measured activity by half.

Bounds are passed on as bounds.

Sequence of BTK C481S protein (Q06187 2-659 C481S): as the sequence (Q06187 2-659) above, with C480S counted along it

Regarding `NC(=O)c1c(-c2ccc(Oc3ccccc3)cc2)nn(C2CCCC3C2CCN3C(=O)n2cncn2)c1N` (stereo not shown) [Compound 253, 1-(1-(1H-1,2,4-triazole-1-carbonyl)octahydro-1H-indol-4-yl)-5-amino-3-(4-phenoxyphenyl)-1H-pyrazole-4-carboxamide], the “BTK (wt) Kobs” value in test [1] was 248, 249, 250, 253, 254, 256, 259, 260, 261, 264, 265, M^−1 · s^−1.

For `NC(=O)c1c(-c2ccc(Oc3ccccc3)cc2)nn2c1NCCC2C1CCN1C(=O)n1cncn1` (stereo not shown) [Compound 137, 7-(1-(1H-1,2,4-triazole-1-carbonyl)azetidin-2-yl)-2-(4-phenoxyphenyl)-4,5,6,7-tetrahydropyrazolo[1,5-a] pyrimidine-3-carboxamide], in test [1], the “BTK (wt) Kobs” value was 132, 134, 136, 137, 138, 140, 150, 152, 153, 154, 155, M^−1 · s^−1. Moreover, the IC50 in test [2] was more than 1000 nM; in test [3], not above 1000 nM.

In the case of `COc1ccc(F)cc1C(=O)NCc1ccc(-c2nn(C3CCCCN(C(=O)n4cncn4)C3)c(N)c2C(N)=O)cc1` (stereo not shown) [Compound 256, 1-(1-(1H-1,2,4-triazole-1-carbonyl)azepan-3-yl)-5-amino-3-(4-((5-fluoro-2-methoxybenzamido)methyl)phenyl)-1H-pyrazole-4-carboxamide], the “BTK (wt) Kobs” value in test [1] is reported as 248, 249, 250, 253, 254, 256, 259, 260, 261, 264, 265, M^−1 · s^−1. Moreover, the IC50 in test [2] and in test [3] was not above 1000 nM throughout.

Take `CN(CCC1CNc2c(C(N)=O)c(-c3ccc(Oc4ccccc4)cc3)nn2C1)C(=O)n1cncn1` (stereo not shown) [Compound 265, 6-(2-(N-methyl-1H-1,2,4-triazole-1-carboxamido)ethyl)-2-(4-phenoxy-phenyl)-4,5,6,7-tetrahydro-pyrazolo[1,5-a]pyrimidine-3-carboxamide]: the “BTK (wt) Kobs” value in test [1] was 248, 249, 250, 253, 254, 256, 259, 260, 261, 264, 265, M^−1 · s^−1. The IC50 was more than 1000 nM in test [2] and not above 1000 nM in test [3].

Regarding `COc1ccc(F)cc1C(=O)NCc1ccc(-c2nn(C[C@H]3CCCCN3C(=O)n3cncn3)c(N)c2C(N)=O)cc1` [Compound 154, (R)-1-((1-(1H-1,2,4-triazole-1-carbonyl)piperidin-2-yl)methyl)-5-amino-3-(4-((5-fluoro-2-methoxybenzamido)methyl)phenyl)-1H-pyrazole-4-carboxamide], in test [1], the “BTK (wt) Kobs” value is 132, 134, 136, 137, 138, 140, 150, 152, 153, 154, 155, M^−1 · s^−1. In addition, the IC50 in test [2] and in test [3] was not above 1000 nM each time.

In the case of `COc1ccc(F)cc1C(=O)NCc1ccc(-c2nn(C3CCC(N(C)C(=O)n4cncn4)C3)c(N)c2C(N)=O)cc1` (stereo not shown) [Compound 150, N-(3-(5-amino-4-carbamoyl-3-(4-((5-fluoro-2-methoxybenzamido)methyl)phenyl)-1H-pyrazol-1-yl)cyclopentyl)-N-methyl-1H-1,2,4-triazole-1-carboxamide], the “BTK (wt) Kobs” value in test [1] is 132, 134, 136, 137, 138, 140, 150, 152, 153, 154, 155, M^−1 · s^−1. Also, the IC50 in test [3] was not above 1000 nM.

For the molecule `COc1ccc(F)cc1C(=O)NCc1ccc(-c2nn(C[C@H](C(C)C)N(C)C(=O)n3cncn3)c3ncnc(N)c23)cc1` [Compound 259, (S)-N-(1-(4-amino-3-(4-((5-fluoro-2-methoxybenzamido)methyl)phenyl)-1H-pyrazolo[3,4-d]pyrimidin-1-yl)-3-methylbutan-2-yl)-N-methyl-1H-1,2,4-triazole-1-carboxamide], the “BTK (wt) Kobs” value in test [1] is reported as 248, 249, 250, 253, 254, 256, 259, 260, 261, 264, 265, M^−1 · s^−1. The IC50 in test [2] and in test [3] was more than 1000 nM throughout.

Consider `CN(C(=O)n1cncn1)C1CCCC(C2CCNc3c(C(N)=O)c(-c4ccc(Oc5ccccc5)cc4)nn32)C1` (stereo not shown) [Compound 134, 7-(3-(N-methyl-1H-1,2,4-triazole-1-carboxamido)cyclohexyl)-2-(4-phenoxyphenyl)-4,5,6,7-tetrahydropyrazolo[1,5-a]pyrimidine-3-carboxamide], for which the “BTK (wt) Kobs” value in test [1] is reported as 132, 134, 136, 137, 138, 140, 150, 152, 153, 154, 155, M^−1 · s^−1. Further, the IC50 in test [2] and in test [3] was not above 1000 nM throughout.

Regarding `NC(=O)c1c(-c2ccc(Oc3ccccc3)cc2)nn2c1NCCC2C1CCN(C(=O)n2cncn2)CC1` (stereo not shown) [Compound 136, 7-(1-(1H-1,2,4-triazole-1-carbonyl)piperidin-4-yl)-2-(4-phenoxyphenyl)-4,5,6,7-tetrahydropyrazolo[1,5-a] pyrimidine-3-carboxamide], in test [1], the “BTK (wt) Kobs” value was 132, 134, 136, 137, 138, 140, 150, 152, 153, 154, 155, M^−1 · s^−1. Further, the IC50 in test [2] and in test [3] was not above 1000 nM throughout.

Regarding `COc1ccc(F)cc1C(=O)NCc1ccc(-c2nn(C(C)C3CCCCN3C(=O)n3cncn3)c(N)c2C(N)=O)cc1` (stereo not shown) [Compound 249, 1-(1-(1-(1H-1,2,4-triazole-1-carbonyl)piperidin-2-yl)ethyl)-5-amino-3-(4-((5-fluoro-2-methoxybenzamido)methyl)phenyl)-1H-pyrazole-4-carboxamide], the “BTK (wt) Kobs” value in test [1] was 248, 249, 250, 253, 254, 256, 259, 260, 261, 264, 265, M^−1 · s^−1. Further, the IC50 in test [2] and in test [3] was not above 1000 nM throughout.

Take `COCC(CN(C)C(=O)n1cncn1)n1nc(-c2ccc(CNC(=O)c3cc(F)ccc3OC)cc2)c2c(N)ncnc21` (stereo not shown) [Compound 261, N-(2-(4-amino-3-(4-((5-fluoro-2-methoxybenzamido)methyl)phenyl)-1H-pyrazolo[3,4-d]pyrimidin-1-yl)-3-methoxypropyl)-N-methyl-1H-1,2,4-triazole-1-carboxamide]: the “BTK (wt) Kobs” value in test [1] was 248, 249, 250, 253, 254, 256, 259, 260, 261, 264, 265, M^−1 · s^−1. The IC50 in test [2] and in test [3] was more than 1000 nM in each case.

Turning to `COc1ccc(F)cc1C(=O)NCc1ccc(-c2nn(C[C@@H]3C[C@@H](C)CCN3C(=O)n3cnnc3)c(N)c2C(N)=O)cc1` [Compound 264, 5-amino-3-(4-((5-fluoro-2-methoxybenzamido)methyl)phenyl)-1-(((2S,4S)-4-methyl-1-(4H-1,2,4-triazole-4-carbonyl)piperidin-2-yl)methyl)-1H-pyrazole-4-carboxamide], the “BTK (wt) Kobs” value in test [1] was 248, 249, 250, 253, 254, 256, 259, 260, 261, 264, 265, M^−1 · s^−1. For the same molecule, the IC50 in test [2] and in test [3] was not above 1000 nM each time.

For the molecule `COc1ccc(F)cc1C(=O)NCc1ccc(-c2nn(C3CCCC4(CCN4C(=O)n4cncn4)C3)c3ncnc(N)c23)cc1` (stereo not shown) [Compound 152, N-(4-(1-(1-(1H-1,2,4-triazole-1-carbonyl)-1-azaspiro[3.5]nonan-6-yl)-4-amino-1H-pyrazolo[3,4-d]pyrimidin-3-yl)benzyl)-5-fluoro-2-methoxybenzamide], the “BTK (wt) Kobs” value in test [1] is listed as 132, 134, 136, 137, 138, 140, 150, 152, 153, 154, 155, M^−1 · s^−1. The molecule also showed an IC50 in test [3] not above 1000 nM.

As for `COc1ccc(F)cc1C(=O)NCc1ccc(-c2nn(C(C)C(C)CN(C)C(=O)n3cncn3)c3ncnc(N)c23)cc1` (stereo not shown) [Compound 248, N-(3-(4-amino-3-(4-((5-fluoro-2-methoxybenzamido)methyl)phenyl)-1H-pyrazolo[3,4-d]pyrimidin-1-yl)-2-methylbutyl)-N-methyl-1H-1,2,4-triazole-1-carboxamide], the “BTK (wt) Kobs” value in test [1] was 248, 249, 250, 253, 254, 256, 259, 260, 261, 264, 265, M^−1 · s^−1. Moreover, the IC50 in test [2] is not above 1000 nM.
